The conditions of series [1]: pure NDGA; cited from earlier work.
For another series, the system named is MCF-7 cells. The series can be described thus: Proliferation of MCF-7 cells in 10% fetal calf serum (CyQUANT). It counts as cell-based, human. The settings on record: MCF-7, 10% fetal calf serum. The procedure:
MCF-7 or MCNeuA cells were plated in 96 well plates (5×10^3 cells/well) in DMEM supplemented with 10% FCS. One plate was prepared for each harvest day. […] Microplate cultures were harvested on days 0, 1, 2, and 3 by inverting the microplate onto paper towels with gentle blotting to remove growth medium without disrupting adherent cells. Each plate was kept at −80° C. until the end of the experiment (day 3) when all of the plates were thawed and assayed together. After thawing, 200 μl of CyQUANT GR solution was added to each well and the plates were incubated in the dark for two to five minutes. Fluorescence was measured with a SpectraMax Gemini XS fluorescence microplate reader (Molecular Devices, Sunnyvale, Calif.) with 480-nm excitation and 520-nm emission. Proliferation index was calculated as the percent of nucleotide content versus control cells at day 0.

In another series the test system is MCF-7/HER2-18 cells. Description: Growth of MCF-7/HER2-18 cells with RTK inhibitors, 6 days (CyQuant). It is filed as cell-based, human. Conditions: read-out: one half maximal effect on growth. The procedure: MCF-7/neo or MCF-7/HER2-18 cells were plated in 96 well plates (4×10^3 cells/well) in 100 μl/well of DMEM-10 medium. […] Media with inhibitors was refreshed on day 3 and the cultures were harvested on day 6. The plates were inverted onto paper towels with gentle blotting to remove growth medium without disrupting adherent cells. Each plate was kept at −80° C. until assayed for cell growth. After thawing the plate at room temperature, 200 μl of CyQuant GR solution was added to each well and the plates were incubated in the dark for five minutes. Fluorescence was measured with a SpectraMax Gemini XS fluorescence microplate reader (Molecular Devices) with 480-nm excitation and 520-nm emission.

The test system of the next series is AKT/PKB. Description: Akt/PKB phosphorylation in MCF-7/HER2-18 cells (western blot). It counts as cell-based, human. The procedure:
[…]. Enzyme linked immunosorbent assays (ELISA) for phosphorylated IGF-1R and HER2 IGF-1R phosphorylation was determined by ELISA as described previously for the insulin receptor [Youngren JF, Goldfine ID and Pratley RE: Decreased muscle insulin receptor kinase con-elates with insulin resistance in normoglycemic Pima Indians. Am J Physiol 273: E276-83, 1997]. Briefly, 10 μg lysate protein were added to triplicate wells in a 96-well plate coated with monoclonal antibody to the IGF-IR (IR3; 2 μg/ml), and incubated for 18 hours at 4° C. Plates were washed five times and then HRP-conjugated anti-phosphotyrosine antibody (0.3 μg/ml), diluted in Solution B (50 mM HEPES, pH 7.6, 150 mM NaCl, 0.05% Tween-20, 1 mM PMSF, 2 mM vanadate and 1 mg/ml bacitracin), was added for two hours at 22° C. Plates were washed five times prior to color development with TMB substrate, which was terminated with 1.0 M H3PO4. Values for receptor phosphorylation were determined by measuring absorbance at 450 nm.
Total protein extracts (10 μg), prepared as described above from cells cultured in the presence or absence of IGF-1 and/or RTK inhibitors, were subjeccted to SDS-PAGE and subsequently transferred to nitrocellulose membranes. […] Membranes were washed again and bound antibodies detected by enhanced chemiluminescence (Pierce). […]
Background: A western blot detects proteins with antibodies after separation by electrophoresis.

In the next series the test system is SH-SY5Y cells. Description: Propidium iodide flow cytometry of apoptotic (sub-G0) SH-SY5Y cells. It counts as cell-based, human. The settings on record: SH-SY5Y cells in serum, 30-120 μM, 24 h. The procedure: Propidium iodide staining of apoptotic cells. SH-SY5Y cells were cultured in DMEM with 10% calf serum. […] The supernatant was collected to save detached cells. Attached cells were removed from the plate via trypsinization, and pelleted by centrifugation in combination with the cells in the supernatant. The cell pellet was fixed by drop-wise addition of cold 70% ethanol while vortexing, gently, and stored at 4° C. The pellet was washed twice and resuspended in PBS and stained with 1 μg/ml propidium iodide. Propidium iodide fluorescence was measured in 30,000 cells per sample using a Becton-Dickinson (Franklin Lakes, N.J.) Facscalibur flow cytometer. The percentage of cells in each stage of the cell cycle, as well as the percentage of cells that were apoptotic (sub-G0) was determined by analyzing the data with ModFit software. The experiment was repeated three times.

The subject of the next series is caspase-3. Description: Caspase-3 cleavage in SH-SY5Y cells. It is filed as cell-based, human. The settings on record: SH-SY5Y cells in serum, 6 h. An excerpt: Detection of Caspase-3 cleavage. […] Lysates were collected as described above, and the 14/17 kD cleavage fragments of caspase-3 were detected via SDS-PAGE followed by immunoblotting with anti-cleaved caspase-3 antibody.

In the next series the test system is Akt/BAD pathway. Description: IGF-1 stimulated Akt and BAD phosphorylation in MCF-7 cells (western blot). It counts as cell-based, human. The settings on record: 1 nM IGF-1. The procedure: Inhibition of IGF-1-stimulated activation of serine kinase Akt was determined in the lysates prepared for the IGF-1R phosphotyrosine ELISA described above. 12 μg of sample was subjected to SDS-PAGE, transfer-ed to a nitrocellulose membrane, and […] quantified by blotting overnight at 4 C with a phospho-specific antibody to Akt (ser473) diluted 1:1000 in Superblock. Next, blots were washed with 3 times with TBST, then incubated with HRP conjugated sheep anti-rabbit IgG diluted 1:10,000 in Superblock for 90 minutes at room temperature. Phosphorylation of the apoptotic protein BAD was determined in the same manner by blotting with a phospho-specific antibody to BAD (ser136) (1:1,000).

The conditions of series [2]: single injection, mouse, intravenous; cited from earlier work.
Another series relates to pancreatic cancer cells. Description: Growth of pancreatic cancer cells in vitro. It counts as cell-based. Conditions: FIG. 3.
The target of a further series is T1, HER2 (Homo sapiens, UniProt P04626).
T1 construct: MCF-7 cells stably transfected with the full length HER2 cDNA (MCF-7/HER2-18); expressed in transfected cells; host or cells: MCF-7/HER2-18 (from Dr. Christopher Benz)
T1 sequence (P04626 23-1255): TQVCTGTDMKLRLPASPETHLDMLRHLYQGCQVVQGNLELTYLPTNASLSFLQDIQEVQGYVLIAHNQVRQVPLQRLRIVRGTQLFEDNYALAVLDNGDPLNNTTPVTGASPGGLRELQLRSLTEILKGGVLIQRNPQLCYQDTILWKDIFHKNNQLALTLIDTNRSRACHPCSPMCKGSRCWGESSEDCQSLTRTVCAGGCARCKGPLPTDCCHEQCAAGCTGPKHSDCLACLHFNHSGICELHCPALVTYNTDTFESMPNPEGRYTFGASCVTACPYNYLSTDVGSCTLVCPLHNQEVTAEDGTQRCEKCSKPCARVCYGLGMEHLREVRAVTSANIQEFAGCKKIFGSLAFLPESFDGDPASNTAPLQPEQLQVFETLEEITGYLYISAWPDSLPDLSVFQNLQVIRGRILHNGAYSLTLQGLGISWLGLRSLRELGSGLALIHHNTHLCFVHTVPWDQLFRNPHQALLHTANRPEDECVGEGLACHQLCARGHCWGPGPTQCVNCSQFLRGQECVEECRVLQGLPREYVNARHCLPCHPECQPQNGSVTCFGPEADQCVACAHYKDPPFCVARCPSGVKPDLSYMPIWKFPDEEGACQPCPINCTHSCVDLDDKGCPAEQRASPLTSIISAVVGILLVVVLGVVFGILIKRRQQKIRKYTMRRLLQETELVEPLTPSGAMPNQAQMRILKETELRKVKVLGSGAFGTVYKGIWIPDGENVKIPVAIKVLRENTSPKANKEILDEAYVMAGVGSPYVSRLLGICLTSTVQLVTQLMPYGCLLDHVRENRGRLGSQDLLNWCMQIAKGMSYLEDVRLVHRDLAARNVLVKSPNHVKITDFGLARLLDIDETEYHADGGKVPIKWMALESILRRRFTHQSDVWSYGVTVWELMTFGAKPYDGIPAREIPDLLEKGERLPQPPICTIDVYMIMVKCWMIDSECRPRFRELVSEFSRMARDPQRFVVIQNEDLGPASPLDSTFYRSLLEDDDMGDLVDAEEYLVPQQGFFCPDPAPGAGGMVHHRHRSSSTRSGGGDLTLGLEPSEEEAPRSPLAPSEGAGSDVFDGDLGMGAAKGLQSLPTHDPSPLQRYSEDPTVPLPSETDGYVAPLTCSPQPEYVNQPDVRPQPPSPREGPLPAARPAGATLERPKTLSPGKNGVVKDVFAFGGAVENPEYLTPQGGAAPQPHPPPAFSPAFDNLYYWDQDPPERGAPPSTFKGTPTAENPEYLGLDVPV
The series can be described thus: HER2 phosphorylation ELISA in MCF-7/HER2-18 cells. It is filed as cell-based. Conditions: not stimulated.

SMILES strings stand for the structures. Read-outs that look alike come from different tables or passages of the source.

With `CC(Cc1ccc(O)c(O)c1)C(C)Cc1ccc(O)c(O)c1` (centres unmarked) [NDGA, nordihydroguaiaretic acid], the toxicity entry in series [1] is given as “minimal toxicity”. Moreover, the cell number entry in the series on MCF-7 cells (60 μM, within 24 hours) was “dramatically reduced”. In addition, the “lowest concentration significantly reducing rate of proliferation” value in the series on MCF-7 cells (up to 3 days) was 15 µM. The IC50 with MCF-7/HER2-18 cells (Homo sapiens, 144 h) is 12.5 µM; in the series with MCF-7/HER2-18 cells, 10 to 20 µM; on HER2 (read-out: half maximal effect on HER2 phosphorylation), ~30 µM. The “IGF-1 stimulated phosphorylation of AKT/PKB” value with AKT/PKB (3 nM IGF-1) is recorded as “inhibited”. For the same compound, in the series on AKT/PKB (absence of IGF-1), the “level of phospho-AKT/PKB” value is “decreased”. In addition, in the series on SH-SY5Y cells, the “percentage of sub-G0 cells” value is listed as “dramatic, dose-dependent increase”. Further, the caspase-3 activation result in the series with caspase-3 is listed as “dose-dependent caspase-3 activation”. Moreover, the “IGF-1 stimulated phosphorylation of Akt and BAD” value with Akt/BAD pathway is recorded as “reduced in a dose-dependent manner”. In addition, the terminal half-life in series [2] was 2.25 h. Moreover, the “growth of pancreatic cancer cells in vitro” value in the series on pancreatic cancer cells was “inhibiting”. For the same compound, the HER2 phosphorylation result at HER2 was “strongly inhibited”.

The record behind these values is patent publication US8143226B2, “Tyrosine kinase receptor antagonists and methods of treatment for breast cancer” (The Regents of the University of California, priority 2005, dated 2012).
